Experimental findings from patent US12679839B2, “Cyclin-dependent kinase 7 (CDK7) non-covalent inhibitors” (JANSSEN PHARMACEUTICA NV, priority 2020, dated 2026) are described below.

The assay deals with T1, CDK7/Cyclin H/MAT-1 complex (Homo sapiens, UniProt P50613).
T1 construct: Human CDK7 (amino acids 1-346); His6 (N); TEV protease cleavage site (N); made in house; host or cells: baculovirus-SF9 insect cells
Nature of the assay: Absorbance kinetic assay (20 nM CDK7/Cyclin H/MAT-1 complex). The class given is biochemical. The settings on record: read-out: CDK7 (20 nM) pIC50 (converted). In short, it runs like this:
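Trimeric complex (His6-TEV CDK7 1-346, MAT1 1-309, cyclin H 1-323) from Sf9 cells, at 20 nM, phosphorylating RNA Pol II-derived CDK7/9-tide; ADP coupled via PK/LDH to NADH depletion read at 340 nm every 2 min for 8 h. Steady-state slopes gave % inhibition; IC50 from 11-point Hill fit.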

T1 sequence (P50613 whole entry, the tested form may be a part): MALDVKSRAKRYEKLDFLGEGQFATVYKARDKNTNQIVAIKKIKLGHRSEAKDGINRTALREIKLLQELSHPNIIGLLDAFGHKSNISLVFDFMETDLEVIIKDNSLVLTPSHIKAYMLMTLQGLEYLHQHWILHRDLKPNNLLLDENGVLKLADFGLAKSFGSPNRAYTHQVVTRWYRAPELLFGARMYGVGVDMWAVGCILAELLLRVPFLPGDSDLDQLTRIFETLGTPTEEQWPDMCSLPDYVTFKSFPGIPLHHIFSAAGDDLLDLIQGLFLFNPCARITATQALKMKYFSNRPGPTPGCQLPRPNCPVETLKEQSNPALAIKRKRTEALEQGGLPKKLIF
T1 sequence (P51946 whole entry partner, the tested form may be a part): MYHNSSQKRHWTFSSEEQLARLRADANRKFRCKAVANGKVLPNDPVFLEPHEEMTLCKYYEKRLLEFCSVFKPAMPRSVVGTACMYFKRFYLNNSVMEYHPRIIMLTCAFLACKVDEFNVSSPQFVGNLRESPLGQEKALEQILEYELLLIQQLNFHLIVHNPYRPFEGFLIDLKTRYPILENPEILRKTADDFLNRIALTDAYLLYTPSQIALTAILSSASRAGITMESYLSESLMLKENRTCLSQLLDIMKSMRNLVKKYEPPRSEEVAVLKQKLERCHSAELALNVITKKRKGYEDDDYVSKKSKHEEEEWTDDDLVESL
T1 sequence (P51948 whole entry partner, the tested form may be a part): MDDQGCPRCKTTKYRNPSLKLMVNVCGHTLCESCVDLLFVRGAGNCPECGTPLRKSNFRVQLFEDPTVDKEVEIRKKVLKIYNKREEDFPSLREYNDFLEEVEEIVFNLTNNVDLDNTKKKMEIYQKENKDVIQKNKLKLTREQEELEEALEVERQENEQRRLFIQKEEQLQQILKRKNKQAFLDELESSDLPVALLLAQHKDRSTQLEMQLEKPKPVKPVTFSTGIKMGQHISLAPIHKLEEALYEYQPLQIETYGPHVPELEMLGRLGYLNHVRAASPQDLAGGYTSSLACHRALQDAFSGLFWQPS

Regarding `CO[C@H]1CC[C@H](Nc2ncc3c(n2)CN(C(=O)[C@@H]2CCN(C)C[C@H]2c2ccnc(C)c2)[C@H](C)C3)CC1` (relative stereo) [Compound 105], the IC50 was less than 9.77 nM.
Regarding `C[C@@H]1Cc2cnc(NC3CCOCC3)nc2CN1C(=O)[C@H]1CCN(C)C[C@@H]1c1cccc(F)c1` (relative stereo) [Compound 133], the IC50 is 12.3 nM.
As for `C[C@@H]1CN(C(=O)[C@H]2CCN(C)C[C@@H]2c2ccccc2)Cc2nc(NC3CCOCC3)ncc21` (relative stereo) [Compound 188], the IC50 was less than 9.77 nM.
As to `C[C@@H]1Cc2cnc(NCc3ccn(C)n3)nc2CN1C(=O)[C@H]1CCN(C)C[C@@H]1c1ccccc1C(F)F` (relative stereo) [Compound 139], the IC50 is 91.2 nM.
For `C[C@@H]1Cc2cnc(NCc3ccccc3)nc2CN1C(=O)[C@@H]1CCN(C)C[C@H]1C(F)(F)F` (relative stereo) [Compound 141] the value was 39.8 nM; for `C[C@@H]1Cc2cnc(NCc3ccn(C)n3)nc2CN1C(=O)[C@H]1CCN(C)C[C@@H]1C(F)(F)F` (relative stereo) [Compound 143], less than 9.77 nM; for `Cc1cccc([C@H]2CN(C)CC[C@@H]2C(=O)N2Cc3nc(NC4CCOCC4)ncc3C[C@H]2C)c1` (relative stereo) [Compound 134], less than 9.77 nM.
For `C[C@@H]1Cc2cnc(NCc3ccn(C)n3)nc2CN1C(=O)[C@H]1CCN(C)C[C@@H]1c1cccc(C(F)(F)F)c1` (relative stereo) [Compound 129] the value was 11.7 nM.
For `C[C@@H]1Cc2cnc(NC3CCOCC3)nc2CN1C(=O)[C@H]1CCN(C)C[C@@H]1c1ccc(Cl)cc1` (relative stereo) [Compound 132] the value was 9.77 nM; for `Cc1cccc([C@@H]2CN(C)CC[C@H]2C(=O)N2Cc3nc(NCc4ccn(C)n4)ncc3C[C@H]2C)c1` (relative stereo) [Compound 136], 11.5 nM; for `C[C@@H]1CN(C)CC[C@H]1C(=O)N1Cc2nc(NC3CCOCC3)ncc2C[C@H]1C` (relative stereo) [Compound 145], 67.6 nM.
Turning to `C[C@H]1CN(C(=O)[C@H]2CCN(C)C[C@@H]2c2ccccc2)[C@@H](C)c2nc(NC3CCOCC3)ncc21` (relative stereo) [Compound 181], the IC50 was 126 nM.
Turning to `[2H]C([2H])([2H])N1CC[C@@H](C(=O)N2Cc3nc(NCc4ccn(C)n4)ncc3C[C@H]2C)[C@H](c2cccc(C)c2)C1` (single isomer, unassigned) [Compound 148], the IC50 is less than 9.77 nM.
Take `[2H]C([2H])([2H])N1CC[C@H](C(=O)N2Cc3nc(NCc4ccccc4)ncc3C[C@H]2C)[C@@H](c2ccccc2)C1` (single isomer, unassigned) [Compound 154]: the IC50 is less than 9.77 nM.
The figure for `Cc1cc([C@@H]2CN(C)CC[C@H]2C(=O)N2Cc3nc(NC4CCOCC4)ncc3C[C@H]2C)ccn1` (relative stereo) [Compound 102] is 105 nM; for `CC1CN(C(=O)[C@H]2CCN(C)C[C@@H]2c2ccccc2)Cc2nc(Nc3cnn(C)c3)ncc21` (mixture of isomers) [Compound 194] it is 17.8 nM.
The figure for `C[C@@H]1Cc2cnc(N[C@H]3CCCNC3)nc2CN1C(=O)[C@H]1CCN(C)C[C@@H]1C(F)(F)F` (relative stereo) [Compound 144] is less than 9.77 nM; for `CN1CC[C@H](C(=O)N2Cc3nc(NC4CCOCC4)ncc3CC2(C)C)[C@@H](c2ccccc2)C1` (relative stereo) [Compound 189] it is 17.8 nM.
In the case of `C[C@@H]1Cc2cnc(N[C@@H]3CCC(=O)N(C)C3)nc2CN1C(=O)[C@H]1CCN(C)C[C@@H]1c1ccccc1` (relative stereo) [Compound 6], the IC50 was less than 9.77 nM.
For the molecule `C[C@@H]1Cc2cnc(N[C@H]3CCOC(C)(C)C3)nc2CN1C(=O)[C@H]1CCN(C)C[C@@H]1c1ccccc1` (relative stereo) [Compound 39], the IC50 is less than 20 nM.
For `C[C@@H]1Cc2cnc(NC3CCOCC3)nc2[C@H](C)N1C(=O)[C@H]1CCN(C)C[C@@H]1c1ccccc1` (single isomer, unassigned) [Compound 195b], the IC50 is less than 9.77 nM.
For `C[C@@H]1Cc2cnc(NC3CCOCC3)nc2CN1C(=O)[C@H]1CCN(C)C[C@@H]1C` (relative stereo) [Compound 146], the IC50 was 11.5 nM.
